Paper PMC12171682, “Saarvienin A—A Novel Glycopeptide with Potent Activity against Drug‐Resistant Bacteria” (Angewandte Chemie (International Ed. in English), 2025)
In brackets after ≈: the same amount, converted by molar mass. Read-outs that look alike come from different tables or passages of the source.

Experiments:
[1] = system: E. faecium DSM 17050 (VRE, vanA positive); settings: broth microdilution, cation-adjusted Mueller-Hinton Broth II, ~4 × 10⁵ CFU/mL, 37 °C, 24 h; mean of three independent biological replicates, each in technical triplicate
S. aureus HG001‐DRSA = settings: daptomycin-resistant mutant of HG001; broth microdilution, cation-adjusted Mueller-Hinton Broth II, ~4 × 10⁵ CFU/mL, 37 °C, 24 h; mean of three independent biological replicates, each in technical triplicate
E. faecalis ATCC 29212 = settings: broth microdilution, 37 °C, 24 h
E. coli K12 ΔacrB = settings: broth microdilution, cation-adjusted Mueller-Hinton Broth II, ~4 × 10⁵ CFU/mL, 37 °C, 24 h, mean of three independent biological replicates, each in technical triplicate
[2] = system: E. coli WO153 (AB1157, recJ asmB1, ΔtolC); settings: broth microdilution, cation-adjusted Mueller-Hinton Broth II, ~4 × 10⁵ CFU/mL, 37 °C, 24 h; mean of three independent biological replicates, each in technical triplicate
[3] = system: M. tuberculosis H37Ra ATCC 25177
[4] = system: S. aureus DSM 11822 (MDR); settings: broth microdilution, cation-adjusted Mueller-Hinton Broth II, ~4 × 10⁵ CFU/mL, 37 °C, 24 h; mean of three independent biological replicates, each in technical triplicate
[5] = system: vancomycin‐resistant E. faecium clinical isolates with reduced susceptibility to daptomycin (n = 26); settings: 24 h
[6] = system: E. faecalis DSM 12956 (VRE, vanB positive); settings: broth microdilution, cation-adjusted Mueller-Hinton Broth II, ~4 × 10⁵ CFU/mL, 37 °C, 24 h; mean of three independent biological replicates, each in technical triplicate
E. coli K12 ΔtolC = settings: broth microdilution, cation-adjusted Mueller-Hinton Broth II, 37 °C, 24 h, mean of three independent biological replicates, each in technical triplicate
[7] = system: S. aureus Mu50 (MRSA/VISA); settings: broth microdilution, cation-adjusted Mueller-Hinton Broth II, ~4 × 10⁵ CFU/mL, 37 °C, 24 h, mean of three independent biological replicates, each in technical triplicate
S. aureus N315 (MRSA) = settings: broth microdilution, cation-adjusted Mueller-Hinton Broth II, ~4 × 10⁵ CFU/mL, 37 °C, 24 h; mean of three independent biological replicates, each in technical triplicate

With `CN[C@@]1(C)C[C@H](O[C@@H]2[C@H](O)C[C@H](O[C@H]3[C@H](C)O[C@@H](O[C@H]4[C@H](O[C@H]5[C@H](C)O[C@@H](Oc6ccc(C[C@@H](O)C(=O)N[C@H]7CNC(=O)NC[C@@H](C(=O)N[C@H](Cc8ccccc8)C(=O)O)NC(=O)[C@H]([C@H](C)c8c[nH]c9ccc(Cl)cc89)NC7=O)cc6)C[C@]5(C)N)O[C@@H](C)[C@H](O)[C@H]4O)C[C@]3(C)NC)O[C@H]2C)O[C@@H](C)[C@@H]1OC` [Saarvienin A, saarvienin A] the “MIC, E. faecium DSM 17050 (VRE, vanA positive)” value [1] was 1 µg/mL (≈ 0.662 µM), the “MIC, S. aureus HG001‐DRSA” value (S. aureus HG001‐DRSA) was 1 µg/mL (≈ 0.662 µM) and the “MIC, E. faecalis ATCC29212” value (E. faecalis ATCC 29212; cation-adjusted Mueller-Hinton Broth II, ~4 × 10⁵ CFU/mL, mean of three independent biological replicates, each in technical triplicate) was 2 µg/mL (≈ 1.32 µM). The “MIC, E. faecalis ATCC29212” value (E. faecalis ATCC 29212; reference strain in Table S5, MHB II, daptomycin with 50 µg/mL Ca2+, mean of two independent experiments) was 2 µg/mL (≈ 1.32 µM), the “MIC, E. coli K12 ΔacrB” value (E. coli K12 ΔacrB) was greater than 64 µg/mL and the “MIC, E. coli K12 ΔacrB” value (E. coli K12 ΔacrB; listed as 1) was “non‐susceptible”. For the same molecule, the “MIC, E. coli WO153 (AB1157, recJ asmB1, ΔtolC)” value [2] was 2 µg/mL (≈ 1.32 µM), the “MIC, M. tuberculosis H37Ra ATCC 25177” value [3] was 32 µg/mL (≈ 21.2 µM) and the “MIC, S. aureus DSM 11822 (MDR)” value [4] was 0.5 µg/mL (≈ 0.331 µM). For the same molecule, the MIC50 [5] was 0.5 µg/mL (≈ 0.331 µM), the MIC90 [5] was 0.5 µg/mL (≈ 0.331 µM) and the “MIC Range” value [5] was 0.5 to 1 µg/mL. For the same molecule, the “MIC, Enterococcus faecium isolate 1” value [5] was 1 µg/mL (≈ 0.662 µM), the “MIC, Enterococcus faecium isolate 2” value [5] was 0.5 µg/mL (≈ 0.331 µM) and the “MIC, Enterococcus faecium isolate 3” value [5] was 0.5 µg/mL (≈ 0.331 µM). For the same molecule, the “MIC, Enterococcus faecium isolate 4” value [5] was 0.5 µg/mL (≈ 0.331 µM), the “MIC, Enterococcus faecium isolate 5” value [5] was 0.5 µg/mL (≈ 0.331 µM) and the “MIC, Enterococcus faecium isolate 6” value [5] was 0.5 µg/mL (≈ 0.331 µM). For the same molecule, the “MIC, Enterococcus faecium isolate 7” value [5] was 0.5 µg/mL (≈ 0.331 µM), the “MIC, Enterococcus faecium isolate 8” value [5] was 0.5 µg/mL (≈ 0.331 µM) and the “MIC, Enterococcus faecium isolate 9” value [5] was 0.5 µg/mL (≈ 0.331 µM). The “MIC, Enterococcus faecium isolate 10” value [5] was 0.5 µg/mL (≈ 0.331 µM), the “MIC, Enterococcus faecium isolate 11” value [5] was 0.5 µg/mL (≈ 0.331 µM) and the “MIC, Enterococcus faecium isolate 12” value [5] was 0.5 µg/mL (≈ 0.331 µM). For the same molecule, the “MIC, Enterococcus faecium isolate 13” value [5] was 0.5 µg/mL (≈ 0.331 µM), the “MIC, Enterococcus faecium isolate 14” value [5] was 0.5 µg/mL (≈ 0.331 µM) and the “MIC, Enterococcus faecium isolate 15” value [5] was 0.5 µg/mL (≈ 0.331 µM). The “MIC, Enterococcus faecium isolate 16” value [5] was 0.5 µg/mL (≈ 0.331 µM), the “MIC, Enterococcus faecium isolate 17” value [5] was 0.5 µg/mL (≈ 0.331 µM) and the “MIC, Enterococcus faecium isolate 18” value [5] was 0.5 µg/mL (≈ 0.331 µM). For the same molecule, the “MIC, Enterococcus faecium isolate 19” value [5] was 0.5 µg/mL (≈ 0.331 µM), the “MIC, Enterococcus faecium isolate 20” value [5] was 0.5 µg/mL (≈ 0.331 µM) and the “MIC, Enterococcus faecium isolate 21” value [5] was 0.5 µg/mL (≈ 0.331 µM). For the same molecule, the “MIC, Enterococcus faecium isolate 22” value [5] was 0.5 µg/mL (≈ 0.331 µM), the “MIC, Enterococcus faecium isolate 23” value [5] was 0.5 µg/mL (≈ 0.331 µM) and the “MIC, Enterococcus faecium isolate 24” value [5] was 0.5 µg/mL (≈ 0.331 µM). The “MIC, Enterococcus faecium isolate 25” value [5] was 0.5 µg/mL (≈ 0.331 µM), the “MIC, Enterococcus faecium isolate 26” value [5] was 0.5 µg/mL (≈ 0.331 µM) and the “MIC, E. faecalis DSM 12956 (VRE, vanB positive)” value [6] was 1 µg/mL (≈ 0.662 µM). The “MIC, E. coli K12 ΔtolC (tolC‐deficient) + PMBN” value (E. coli K12 ΔtolC; co‐incubated with sub‐lethal concentrations of polymyxin B nonapeptide (PMBN)) was 32 µg/mL, the “MIC, E. coli K12 ΔtolC” value (E. coli K12 ΔtolC; without PMBN, ~4 × 10⁵ CFU/mL) was 64 µg/mL (≈ 42.4 µM) and the “MIC, S. aureus Mu50 (MRSA/VISA)” value [7] was 1 µg/mL (≈ 0.662 µM). For the same molecule, the “MIC, S. aureus Mu50 (MRSA/VISA)” value ([7]; listed as 1) was 0.5 µg/mL (≈ 0.331 µM) and the “MIC, S. aureus N315 (MRSA)” value (S. aureus N315 (MRSA)) was 0.5 µg/mL (≈ 0.331 µM).
